Experimental data taken from patent US20230346272A1 (priority 2021, published 2023).

Assay: Differential Pulse Voltammetry (DPV) with microneedle sensor array, oxycodone and metabolites (FIG. 10)
Type: physicochemical
Details: applied voltages from 0 to 1.2V

SMILES | current peak (DPV) | voltage of the current peak (DPV)
COc1ccc2c3c1O[C@H]1C(=O)CC[C@@]4(O)[C@@H](C2)NCC[C@]314 [noroxycodone] | about 165 μA | about 0.95 V
COc1ccc2c3c1O[C@H]1C(=O)CC[C@@]4(O)[C@@H](C2)N(C)CC[C@]314 [oxycodone] | about 100 μA | about 0.75 V
CN1CC[C@]23c4c5ccc(O)c4O[C@H]2C(=O)CC[C@@]3(O)[C@H]1C5 [oxymorphone] | about 30 μA | about 0.45 V
